Counter-ions that a name gives are not always drawn.
Test system: bacterial strains that express the class D cephalosporinase OXA-15
Assay: Standard BLI potentiation MIC / synergy MIC (sMIC) assays run in the presence of a β-lactam, OXA-15 expressing strains
Type: cell-based, E. coli
Conditions: BLI in combination with a β-lactam; comparison with Avibactam (comparator compound CCC)
Source text: Unless otherwise indicated, the activity of the BLI compounds can be described by the MIC value obtained from a Synergy MIC assay or a BLI potentiation assay (e.g as described herein), both of which are run in the presence of a β-lactam.
A set of β-lactamase expressing isogenic E. coli strains was constructed by cloning a β-lactamase gene into a customized derivative of pBR322 (GenBank Accession Number J01749) and transforming the engineered plasmids into E. coli. The NdeI restriction site within the plasmid backbone of pBR322 was removed to generate pBR322 ΔNdeI. The pBR322 ΔNdeI vector itself, minus the blaTEM-1 gene, was amplified using two primers: (1) pBR-Pbla 5′-cgcatatgactettectttttcaatattattg-3, SEQ ID 1, a primer with an engineered NdeI restriction site at the 3′ end of the blaTEM-1 promoter and (2) pBR-vec-1 5′-[…]-3′, SEQ ID 2, a primer with an engineered BamHI restriction site at the 3′ end of the blaTEM-1 open reading frame. The chloramphenicol resistance gene, cat, was generated by PCR amplification from pKD3 (GenBank Accession Number AY048742) using primers with an engineered NdeI restriction site at the 5′ end (Pbla-cat 5′-[…]-3′, SEQ ID 3) and an engineered BamHI restriction site at the 3′ end (Vec-1-cat 5′-[…]-3′, SEQ ID 4) of the resistance gene. The two PCR products, pBR322 ΔNdeI and cat were ligated together generating pBR-CBST (pBR322 ΔNdeI ΔTEM-1::cat Seq. ID 5) which retains both the pBR322 tetracycline resistance cassette, tetA, and the plasmid origin of replication but the blaTEM-1 gene was replaced by the cat gene.
Using this engineering strategy a number of plasmids producing β-lactamase genes from different classes (see below) were generated using synthetic genes with an engineered NdeI restriction site at the 5′ end and BamHI restriction site at the 3′ end of each gene (GenScript). Both the synthetic β-lactamase genes and cat gene were ligated into the NdeI/BamHI sites of the pBR322 ΔNdeI PCR product and transformed into electrocompetent E. coli ElectroMax DH10B (Invitrogen/Life Technologies). E. coli DH10B harboring the recombinant plasmids were selected on LB agar (supplemented with 25 μg/mL tetracycline) and single isolated colonies were then inoculated into 5 mL LB media (supplemented with 25 μg/mL tetracycline), and incubated at 37° C. with aeration (250 rpm) for 18 hrs. The cultures were frozen back at −80° C. in 20% glycerol. The DNA sequence of the cloned β-lactamase genes was confirmed. The β-lactamase gene expression in the recombinant E. coli strains was driven by the blaTEM-1 promoter in the pBR-CBST plasmid and was characterized by MIC profiling of the E. coli recombinant strains against comparator β-lactam/BLI combinations in broth microdilution assay.
The experimental protocol was performed according to Clinical and Laboratory Standards Institute (CLSI) guidelines with modifications as described below (CLSI guidelines can be derived from the CLSI document M07-A9 published in January 2012: “Methods for Dilution Antimicrobial Susceptibility Tests for Bacteria That Grow Aerobically; Approved Standard-Ninth Edition”).
To prepare for MIC testing, frozen glycerol stocks of clinical isolates (Klebsiella pneumoniae, Eschericia coli, Enterobacter spp, Citrobacter spp, or Pseudomonas aeruginosa) were used to streak for isolated colonies on rich, non-selective, tryptic soy agar containing 5% sheep's blood (TSAB). Frozen glycerol stocks of laboratory engineered, isogenic E. coli strains, which contain cloned β-lactamase expressing plasmids were used to streak for isolated colonies on rich, selective LB agar supplemented with 25 μg/mL tetracycline to maintain the plasmid. All strains were incubated at 37° C. for 18-24 hrs.
On the day of testing, primary cultures were started by scraping off 5-10 colonies from the TSAB plates containing clinical strains or the tetracycline supplemented LB plates containing engineered strains. […]

For `N=C(N)NCc1nnc([C@@H]2CC[C@@H]3CN2C(=O)N3OS(=O)(=O)O)o1` [Compound 704, (2S,5R)-2-(5-(guanidinomethyl)-1,3,4-oxadiazol-2-yl)-7-oxo-1,6-diazabicyclo[3.2.1]octan-6-yl hydrogen sulfate], the “activity against bacterial strains that express the class D cephalosporinase OXA-15, compared with Avibactam” value (“activity … compared with Avibactam” below) was “more active than Avibactam”.

For `Nc1nnc([C@@H]2CC[C@@H]3CN2C(=O)N3OS(=O)(=O)O)o1` [Compound 707, (2S,5R)-2-(5-amino-1,3,4-oxadiazol-2-yl)-7-oxo-1,6-diazabicyclo[3.2.1]octan-6-yl hydrogen sulfate], the “activity … compared with Avibactam” value was “more active than Avibactam”.

For `N=C(N)N1CCC(c2nnc([C@@H]3CC[C@@H]4CN3C(=O)N4OS(=O)(=O)O)o2)CC1` [Compound 712, (2S,5R)-2-(5-(1-carbamimidoylpiperidin-4-yl)-1,3,4-oxadiazol-2-yl)-7-oxo-1,6-diazabicyclo[3.2.1]octan-6-yl hydrogen sulfate], the “activity … compared with Avibactam” value was “more active than Avibactam”.

With `O=C1N2C[C@@H](CC[C@H]2c2nnc(N3CCNCC3)o2)N1OS(=O)(=O)O` [Compound 713, (2S,5R)-7-oxo-2-(5-(piperazin-1-yl)-1,3,4-oxadiazol-2-yl)-1,6-diazabicyclo[3.2.1]octan-6-yl hydrogen sulfate] the “activity … compared with Avibactam” value was “more active than Avibactam”.

For `N=C(N)NCCCc1nnc([C@@H]2CC[C@@H]3CN2C(=O)N3OS(=O)(=O)O)o1` [Compound 714, (2S,5R)-2-(5-(3-guanidinopropyl)-1,3,4-oxadiazol-2-yl)-7-oxo-1,6-diazabicyclo[3.2.1]octan-6-yl hydrogen sulfate], the “activity … compared with Avibactam” value was “more active than Avibactam”.

`NCC(O)c1nnc([C@@H]2CC[C@@H]3CN2C(=O)N3OS(=O)(=O)O)o1` (stereo partly drawn) [Compound 715, (2S,5R)-2-(5-(2-amino-1-hydroxyethyl)-1,3,4-oxadiazol-2-yl)-7-oxo-1,6-diazabicyclo[3.2.1]octan-6-yl hydrogen sulfate] was tested, and the “activity … compared with Avibactam” value was “more active than Avibactam”.

`NCCNCCc1nnc([C@@H]2CC[C@@H]3CN2C(=O)N3OS(=O)(=O)O)o1` [Compound 716, (2S,5R)-2-(5-(2-((2-aminoethyl)amino)ethyl)-1,3,4-oxadiazol-2-yl)-7-oxo-1,6-diazabicyclo[3.2.1]octan-6-yl hydrogen sulfate] was tested, and the “activity … compared with Avibactam” value was “more active than Avibactam”.

For `NCC(N)c1nnc([C@@H]2CC[C@@H]3CN2C(=O)N3OS(=O)(=O)O)o1` (stereo partly drawn) [Compound 717, (2S,5R)-2-(5-(1,2-diaminoethyl)-1,3,4-oxadiazol-2-yl)-7-oxo-1,6-diazabicyclo[3.2.1]octan-6-yl hydrogen sulfate], the “activity … compared with Avibactam” value was “more active than Avibactam”.

With `O=C1N2C[C@@H](CC[C@H]2c2nnc(C3CCNCC3)s2)N1OS(=O)(=O)O` [Compound 719, (2S,5R)-7-oxo-2-(5-(piperidin-4-yl)-1,3,4-thiadiazol-2-yl)-1,6-diazabicyclo[3.2.1]octan-6-yl hydrogen sulfate] the “activity … compared with Avibactam” value was “more active than Avibactam”.

For `O=C1N2C[C@@H](CC[C@H]2c2nnc(CC3CNC3)o2)N1OS(=O)(=O)O` [Compound 725, (2S,5R)-2-(5-(azetidin-3-ylmethyl)-1,3,4-oxadiazol-2-yl)-7-oxo-1,6-diazabicyclo[3.2.1]octan-6-yl hydrogen sulfate], the “activity … compared with Avibactam” value was “more active than Avibactam”.

With `NCC(O)Cc1nnc([C@@H]2CC[C@@H]3CN2C(=O)N3OS(=O)(=O)O)o1` (stereo partly drawn) [Compound 733, (2S,5R)-2-(5-(3-amino-2-hydroxypropyl)-1,3,4-oxadiazol-2-yl)-7-oxo-1,6-diazabicyclo[3.2.1]octan-6-yl hydrogen sulfate] the “activity … compared with Avibactam” value was “more active than Avibactam”.

In the case of `N=C(N)N[C@H]1C[C@H](c2nnc([C@@H]3CC[C@@H]4CN3C(=O)N4OS(=O)(=O)O)o2)C1` [Compound 748, (2S,5R)-2-(5-((1r,3S)-3-guanidinocyclobutyl)-1,3,4-oxadiazol-2-yl)-7-oxo-1,6-diazabicyclo[3.2.1]octan-6-yl hydrogen sulfate], the “activity … compared with Avibactam” value was “more active than Avibactam”.

In the case of `N[C@H]1C[C@H](NCc2nnc([C@@H]3CC[C@@H]4CN3C(=O)N4OS(=O)(=O)O)o2)C1` [Compound 757, (2S,5R)-2-(5-((((1r,3S)-3-aminocyclobutyl)amino)methyl)-1,3,4-oxadiazol-2-yl)-7-oxo-1,6-diazabicyclo[3.2.1]octan-6-yl hydrogen sulfate], the “activity … compared with Avibactam” value was “more active than Avibactam”.

`O=C1N2C[C@@H](CC[C@H]2c2nnc(CNC3CCNCC3)o2)N1OS(=O)(=O)O` [Compound 769, (2S,5R)-7-oxo-2-(5-((piperidin-4-ylamino)methyl)-1,3,4-oxadiazol-2-yl)-1,6-diazabicyclo[3.2.1]octan-6-yl hydrogen sulfate] was tested, and the “activity … compared with Avibactam” value was “more active than Avibactam”.

For `NC1CCN(c2nnc([C@@H]3CC[C@@H]4CN3C(=O)N4OS(=O)(=O)O)o2)CC1` [Compound 773, (2S,5R)-2-(5-(4-aminopiperidin-1-yl)-1,3,4-oxadiazol-2-yl)-7-oxo-1,6-diazabicyclo[3.2.1]octan-6-yl hydrogen sulfate], the “activity … compared with Avibactam” value was “more active than Avibactam”.

For `O=C1N2C[C@@H](CC[C@H]2c2nnc([C@@H]3CNCCN3)o2)N1OS(=O)(=O)O` [Compound 778, (2S,5R)-7-oxo-2-(5-((S)-piperazin-2-yl)-1,3,4-oxadiazol-2-yl)-1,6-diazabicyclo[3.2.1]octan-6-yl hydrogen sulfate], the “activity … compared with Avibactam” value was “more active than Avibactam”.

For `N[C@H]1CC[C@@H](c2nnc([C@@H]3CC[C@@H]4CN3C(=O)N4OS(=O)(=O)O)o2)CC1` [Compound 780, (2S,5R)-2-(5-((1s,4R)-4-aminocyclohexyl)-1,3,4-oxadiazol-2-yl)-7-oxo-1,6-diazabicyclo[3.2.1]octan-6-yl hydrogen sulfate], the “activity … compared with Avibactam” value was “more active than Avibactam”.

With `N[C@H]1CC[C@H](c2nnc([C@@H]3CC[C@@H]4CN3C(=O)N4OS(=O)(=O)O)o2)CC1` [Compound 781, (2S,5R)-2-(5-((1r,4S)-4-aminocyclohexyl)-1,3,4-oxadiazol-2-yl)-7-oxo-1,6-diazabicyclo[3.2.1]octan-6-yl hydrogen sulfate] the “activity … compared with Avibactam” value was “more active than Avibactam”.

`O=C1N2C[C@@H](CC[C@H]2c2nnc(CCCN3CCNCC3)o2)N1OS(=O)(=O)O` [Compound 792, (2S,5R)-7-oxo-2-(5-(3-(piperazin-1-yl)propyl)-1,3,4-oxadiazol-2-yl)-1,6-diazabicyclo[3.2.1]octan-6-yl hydrogen sulfate] was tested, and the “activity … compared with Avibactam” value was “more active than Avibactam”.

From patent US8962844B2, “1,3,4-oxadiazole and 1,3,4-thiadiazole β-lactamase inhibitors” (priority 2012, dated 2015)
